Data: paper PMC9578043 (Journal of medicinal chemistry, 2021)

What was measured:
CYP2C9 = CYP2C9 (Homo sapiens, UniProt P11712); experiment: CYP inhibition 2C9; assay type: in vitro ADME
CYP3A4 = CYP3A4 (Homo sapiens, UniProt P08684); experiment: CYP inhibition 3A4; assay type: in vitro ADME
CYP2C19 = CYP2C19 (Homo sapiens, UniProt P33261); experiment: CYP inhibition 2C19; assay type: in vitro ADME
[1] = Liver microsomal stability, human; assay type: in vitro ADME
[2] = Liver microsomal stability, rat; assay type: in vitro ADME
CYP2D6 = CYP2D6 (Homo sapiens, UniProt P10635); experiment: CYP inhibition 2D6; assay type: in vitro ADME
Chain of CYP2D6 (P10635 whole entry): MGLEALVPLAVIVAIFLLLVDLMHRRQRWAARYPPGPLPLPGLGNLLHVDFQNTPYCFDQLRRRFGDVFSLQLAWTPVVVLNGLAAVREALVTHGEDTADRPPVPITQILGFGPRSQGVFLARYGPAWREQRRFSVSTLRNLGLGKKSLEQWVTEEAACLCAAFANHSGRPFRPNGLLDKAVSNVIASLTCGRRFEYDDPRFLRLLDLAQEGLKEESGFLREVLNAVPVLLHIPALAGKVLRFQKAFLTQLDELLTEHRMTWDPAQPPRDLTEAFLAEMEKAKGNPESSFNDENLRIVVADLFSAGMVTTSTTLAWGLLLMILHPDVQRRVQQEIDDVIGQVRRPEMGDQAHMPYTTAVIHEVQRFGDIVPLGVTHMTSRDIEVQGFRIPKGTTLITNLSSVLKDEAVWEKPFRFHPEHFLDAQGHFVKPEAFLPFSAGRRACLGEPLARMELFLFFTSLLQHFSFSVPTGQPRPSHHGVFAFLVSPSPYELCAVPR

[3] = Liver microsomal stability, monkey; assay type: in vitro ADME, cynomolgus monkey; conditions: for half-life: cynomolgus monkey
[4] = Liver microsomal stability, mouse; assay type: in vitro ADME
[5] = Plasma protein binding, rat; assay type: in vitro ADME
[6] = Kinetic solubility in PBS; assay type: physicochemical; conditions: pH 7.4
[7] = Plasma protein binding, human; assay type: in vitro ADME
ATTR-CM [8] = conditions: 28 day phase II, cited from earlier work
serum RBP4 levels = test system: serum RBP4 levels; parameters: species or system mice; conditions: mouse, in vivo, po
hereditary ATTR = conditions: patients with hereditary ATTR; cited from earlier work
ATTR-CM [9] = conditions: 441 ATTR-CM patients, compared to placebo; cited from earlier work
TTR = conditions: ITC; cited from earlier work

Chain of CYP2C19 (P33261 whole entry): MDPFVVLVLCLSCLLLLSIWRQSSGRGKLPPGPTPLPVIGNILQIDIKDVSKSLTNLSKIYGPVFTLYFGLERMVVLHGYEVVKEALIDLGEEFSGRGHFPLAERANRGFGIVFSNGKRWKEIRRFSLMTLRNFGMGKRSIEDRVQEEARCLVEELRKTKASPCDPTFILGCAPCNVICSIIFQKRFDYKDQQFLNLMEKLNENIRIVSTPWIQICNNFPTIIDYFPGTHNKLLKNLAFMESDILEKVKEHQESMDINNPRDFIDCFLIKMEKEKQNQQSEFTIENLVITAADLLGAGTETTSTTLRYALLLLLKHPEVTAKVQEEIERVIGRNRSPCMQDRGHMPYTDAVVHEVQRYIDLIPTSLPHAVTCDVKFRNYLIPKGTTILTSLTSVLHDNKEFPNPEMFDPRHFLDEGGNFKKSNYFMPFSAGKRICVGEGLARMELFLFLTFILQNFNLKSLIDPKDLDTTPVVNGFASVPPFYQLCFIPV
Chain of CYP2C9 (P11712 whole entry): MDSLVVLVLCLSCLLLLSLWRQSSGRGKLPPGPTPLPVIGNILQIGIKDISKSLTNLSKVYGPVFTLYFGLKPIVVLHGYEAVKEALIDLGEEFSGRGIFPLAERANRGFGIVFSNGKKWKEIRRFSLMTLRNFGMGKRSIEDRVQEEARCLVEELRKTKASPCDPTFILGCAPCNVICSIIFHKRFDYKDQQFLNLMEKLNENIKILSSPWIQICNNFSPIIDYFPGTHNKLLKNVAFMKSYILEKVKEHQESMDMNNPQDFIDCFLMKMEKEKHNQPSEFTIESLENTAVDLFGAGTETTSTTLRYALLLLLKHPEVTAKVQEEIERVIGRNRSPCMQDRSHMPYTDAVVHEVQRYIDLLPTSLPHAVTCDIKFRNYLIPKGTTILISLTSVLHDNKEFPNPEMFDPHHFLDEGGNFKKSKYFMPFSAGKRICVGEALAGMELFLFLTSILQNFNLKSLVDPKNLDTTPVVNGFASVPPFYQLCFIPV
Chain of CYP3A4 (P08684 whole entry): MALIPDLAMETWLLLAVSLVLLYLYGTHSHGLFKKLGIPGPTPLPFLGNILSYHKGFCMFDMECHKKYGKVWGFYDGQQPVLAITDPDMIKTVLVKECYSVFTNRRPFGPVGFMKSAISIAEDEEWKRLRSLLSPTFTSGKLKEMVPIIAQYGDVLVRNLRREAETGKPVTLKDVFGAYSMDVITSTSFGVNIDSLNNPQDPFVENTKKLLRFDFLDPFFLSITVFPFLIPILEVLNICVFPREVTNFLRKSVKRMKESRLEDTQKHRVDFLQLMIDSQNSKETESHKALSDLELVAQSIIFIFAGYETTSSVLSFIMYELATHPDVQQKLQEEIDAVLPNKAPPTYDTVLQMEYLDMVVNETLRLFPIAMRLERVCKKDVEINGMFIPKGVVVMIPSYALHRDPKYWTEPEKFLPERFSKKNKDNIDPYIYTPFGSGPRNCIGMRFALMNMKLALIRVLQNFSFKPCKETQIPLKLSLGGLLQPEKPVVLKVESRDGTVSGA

Compound	half-life ([1]; liver microsomes) [h]	half-life ([2]; liver microsomes) [h]	half-life ([3]; liver microsomes) [h]	half-life ([4]; liver microsomes) [h]	half-life ([1]; microsomes) [h]	half-life ([2]; microsomes) [h]	half-life ([3]; microsomes) [h]	half-life ([4]; microsomes) [h]	other results
COc1ccc(C(=O)O)cc1N1CCN(c2c(C)n[nH]c2C)CC1 [20b, 3-(4-(3,5-dimethyl-1H-pyrazol-4-yl)piperazin-1-yl)-4-methoxybenzoic acid]	> 1	> 1	> 1	> 1					inhibition at 10 µM (CYP2C9): 1.4%; inhibition at 10 µM (CYP3A4): 19.6%; inhibition at 10 µM (CYP2C19): 4.2%; microsomal CLint ([1]; liver microsomes): < 23.1 µL/min/mg; remaining at 0.5 h ([1]; liver microsomes): 108%; microsomal CLint ([2]; liver microsomes): < 23.1 µL/min/mg; remaining at 0.5 h ([2]; liver microsomes): 101%; inhibition at 10 µM (CYP2D6): 8%; microsomal CLint ([3]; monkey, liver microsomes): < 23.1 µL/min/mg; remaining at 0.5 h ([3]; monkey, liver microsomes): 102%; microsomal CLint ([4]; liver microsomes): < 23.1 µL/min/mg; remaining at 0.5 h ([4]; liver microsomes): 102%; fraction unbound [5]: 0.22; solubility [6]: ≥ 200 µM; fraction unbound [7]: 0.25
Cc1ccc(C(=O)O)cc1N1CCN(c2c(C)n[nH]c2C)CC1 [20c, 3-(4-(3,5-dimethyl-1H-pyrazol-4-yl)piperazin-1-yl)-4-methylbenzoic acid]					> 1	> 1	> 1	> 1	
Cc1n[nH]c(C)c1N1CCN(c2cc(C(=O)O)ccc2C(F)(F)F)CC1 [20d, 3-(4-(3,5-dimethyl-1H-pyrazol-4-yl)piperazin-1-yl)-4-(trifluoromethyl)benzoic acid]					> 1	> 1	> 1	> 1	
Cc1n[nH]c(C)c1N1CCN(c2cc(C(=O)O)ccc2Cl)CC1 [20e, 4-chloro-3-(4-(3,5-dimethyl-1H-pyrazol-4-yl)piperazin-1-yl)benzoic acid]	> 1	> 1	> 1	> 1					
Cc1cc(F)c(N2CCN(c3c(C)n[nH]c3C)CC2)cc1C(=O)O [20i, 5-(4-(3,5-dimethyl-1H-pyrazol-4-yl)piperazin-1-yl)-4-fluoro-2-methylbenzoic acid]	> 1	> 1	> 1	> 1					
Cc1n[nH]c(C)c1CCCOc1cc(C(=O)O)ccc1F [AG10, acoramidis]									stabilization of TTR (ATTR-CM [8]; ATTR-CM patients with symptomatic chronic heart failure): near-complete stabilization; tolerability (ATTR-CM [8]): well tolerated
Cc1n[nH]c(C)c1N1CCN(c2cc(C(=O)O)ccc2F)CC1 [compound 14, 3-(4-(3,5-dimethyl-1H-pyrazol-4-yl)piperazin-1-yl)-4-fluorobenzoic acid]					> 1	> 1	> 1	> 1	changes in serum TTR levels (serum RBP4 levels): No changes
Cc1n[nH]c(C)c1N1CCN(c2cc(-c3nn[nH]n3)ccc2F)CC1 [compound 54, 1-(3,5-dimethyl-1H-pyrazol-4-yl)-4-(2-fluoro-5-(2H-tetrazol-5-yl)phenyl)piperazine]					1.26	< 1	< 1	< 1	microsomal CLint ([1]; microsomes): 18.4 µL/min/mg
O=C(O)c1ccc2nc(-c3cc(Cl)cc(Cl)c3)oc2c1 [tafamidis]									patients who do not respond (hereditary ATTR): Approximately 30%; reduction of the rate of cardiovascular-related hospitalizations (ATTR-CM [9]): 32%; reduction of the risk of death (ATTR-CM [9]): 30%; ΔH (TTR): -5.00 kcal/mol
